Results reported in ChEMBL document CHEMBL1130457, “Design and synthesis of a novel class of thrombin inhibitors incorporating heterocyclic dipeptide surrogates” (Bioorg Med Chem Lett, 1997).

Assays:
[1] = molecular target: Tissue-type plasminogen activator (Homo sapiens, UniProt P00750); experiment: Inhibitory concentration required to inhibit human Tissue type plasminogen activator was determined
[2] = molecular target: Coagulation factor X (Homo sapiens, UniProt P00742)
[3] = molecular target: Plasminogen (Homo sapiens, UniProt P00747)
Chain of Plasminogen (P00747 97-580 limits assumed): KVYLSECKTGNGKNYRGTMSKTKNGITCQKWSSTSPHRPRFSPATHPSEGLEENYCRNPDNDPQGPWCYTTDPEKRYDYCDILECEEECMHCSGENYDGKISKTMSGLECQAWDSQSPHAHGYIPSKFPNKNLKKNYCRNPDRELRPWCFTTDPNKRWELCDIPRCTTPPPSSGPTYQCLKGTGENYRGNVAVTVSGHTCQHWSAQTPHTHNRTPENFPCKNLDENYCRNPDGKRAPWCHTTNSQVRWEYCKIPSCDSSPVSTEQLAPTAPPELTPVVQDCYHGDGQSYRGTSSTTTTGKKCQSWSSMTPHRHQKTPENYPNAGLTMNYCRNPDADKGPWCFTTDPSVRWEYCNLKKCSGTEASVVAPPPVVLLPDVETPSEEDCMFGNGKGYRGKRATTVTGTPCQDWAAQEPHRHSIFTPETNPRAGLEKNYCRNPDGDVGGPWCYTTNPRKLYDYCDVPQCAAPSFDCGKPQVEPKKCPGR
Chain of Plasminogen (P00747 581-810 limits assumed): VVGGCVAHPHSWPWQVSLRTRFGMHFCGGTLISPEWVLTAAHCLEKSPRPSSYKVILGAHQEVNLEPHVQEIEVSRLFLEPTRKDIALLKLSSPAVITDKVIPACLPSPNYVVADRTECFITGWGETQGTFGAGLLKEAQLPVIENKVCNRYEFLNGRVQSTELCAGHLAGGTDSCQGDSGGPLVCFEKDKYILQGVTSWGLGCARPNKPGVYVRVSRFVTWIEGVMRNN

[4] = molecular target: Prothrombin (Homo sapiens, UniProt P00734)
Description: Inhibitory concentration required to inhibit human thrombin enzyme was determined

[5] = molecular target: Serine protease 1 (Homo sapiens, UniProt P07477)
Chain of Serine protease 1 (P07477 whole entry): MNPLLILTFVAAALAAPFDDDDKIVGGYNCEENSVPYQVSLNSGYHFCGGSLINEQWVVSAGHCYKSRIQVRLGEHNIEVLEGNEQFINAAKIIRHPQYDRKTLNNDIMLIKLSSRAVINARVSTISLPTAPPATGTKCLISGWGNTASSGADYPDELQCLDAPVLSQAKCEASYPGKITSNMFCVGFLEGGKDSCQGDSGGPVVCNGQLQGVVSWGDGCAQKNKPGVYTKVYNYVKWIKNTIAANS

Chain of Coagulation factor X (P00742 41-179 limits assumed): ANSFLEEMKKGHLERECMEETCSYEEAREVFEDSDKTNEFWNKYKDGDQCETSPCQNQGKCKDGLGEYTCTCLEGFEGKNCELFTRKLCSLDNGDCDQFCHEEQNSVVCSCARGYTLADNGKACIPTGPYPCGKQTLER
Chain of Coagulation factor X (P00742 235-488 limits assumed): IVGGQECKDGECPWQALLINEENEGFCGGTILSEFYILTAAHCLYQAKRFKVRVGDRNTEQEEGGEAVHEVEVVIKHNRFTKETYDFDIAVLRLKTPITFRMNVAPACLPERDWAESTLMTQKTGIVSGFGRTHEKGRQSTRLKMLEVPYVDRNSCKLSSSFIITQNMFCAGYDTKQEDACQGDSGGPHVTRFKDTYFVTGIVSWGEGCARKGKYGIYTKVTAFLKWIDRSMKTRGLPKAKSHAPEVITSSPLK
Chain of Tissue-type plasminogen activator (P00750 whole entry): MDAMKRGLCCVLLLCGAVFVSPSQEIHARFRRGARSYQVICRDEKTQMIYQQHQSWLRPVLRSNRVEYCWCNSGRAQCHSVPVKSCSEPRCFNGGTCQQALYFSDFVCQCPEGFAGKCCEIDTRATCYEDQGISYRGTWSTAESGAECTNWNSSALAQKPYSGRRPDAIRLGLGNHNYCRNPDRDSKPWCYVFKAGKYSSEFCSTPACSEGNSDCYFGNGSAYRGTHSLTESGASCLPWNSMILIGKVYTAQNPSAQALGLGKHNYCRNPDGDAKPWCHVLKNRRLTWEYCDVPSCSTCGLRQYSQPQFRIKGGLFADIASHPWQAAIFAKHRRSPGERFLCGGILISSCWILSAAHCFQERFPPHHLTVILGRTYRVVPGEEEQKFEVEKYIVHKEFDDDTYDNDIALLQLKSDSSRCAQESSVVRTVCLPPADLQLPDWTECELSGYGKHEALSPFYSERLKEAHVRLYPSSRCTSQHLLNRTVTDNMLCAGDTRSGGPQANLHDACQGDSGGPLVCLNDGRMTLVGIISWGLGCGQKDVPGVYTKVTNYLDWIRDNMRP

Row | Structure (SMILES) | IC50 [1] | IC50 [2] | IC50 [3] | IC50 [4] | IC50 [5]
1 | Cc1ccc(NS(=O)(=O)Cc2ccccc2)c(=O)n1CC(=O)N[C@H]1CCCN(C(=N)N)C1O (stereo not given in full) | > 2.5 µM | 0.447 µM | > 2.5 µM | 0.000467 µM | 0.0109 µM
2 | N=C(N)N1CCC[C@H](NC(=O)CN2CCC[C@H](NS(=O)(=O)Cc3ccccc3)C2=O)C1O (stereo not given in full) | > 2.5 µM | 2.5 µM | > 2.5 µM | 0.0062 µM | 0.791 µM
3 | Cc1ncc(NS(=O)(=O)Cc2ccccc2)c(=O)n1CC(=O)N[C@H]1CCCN(C(=N)N)C1O (stereo not given in full) | > 2.5 µM | 0.905 µM | > 2.5 µM | 0.00232 µM | 0.16 µM
4 | Cn1cc(NS(=O)(=O)Cc2ccccc2)c(=O)n(CC(=O)N[C@H]2CCCN(C(=N)N)C2O)c1=O (stereo not given in full) | > 2.5 µM | 2.5 µM | > 2.5 µM | 0.141 µM | 0.396 µM
5 | N=C(N)N1CCC[C@H](NC(=O)Cn2cccc(NS(=O)(=O)Cc3ccccc3)c2=O)C1O (stereo not given in full) | > 2.5 µM | 0.0209 µM | > 2.5 µM | 0.000505 µM | 0.0262 µM
